This note sets out measurements from PubChem BioAssay (NCI).

Among the test systems are RXF 393 renal; NCI-H522 lung; OVCAR-5 ovarian; K-562 leukemia; SF-268 CNS; NCI/ADR-RES ovarian; NCI-H226 lung; RPMI-8226 leukemia; MDA-MB-435; KM12 colon; SR leukemia; HOP-62 NSCLC; PC-3 prostate; HT29 colon; MDA-MB-231 breast; COLO 205 colon; U251 CNS; MOLT-4 leukemia; HS 578T breast; OVCAR-4 ovarian.
Holding throughout (test): inhibition of tumour cell growth, NCI panel, 48 h

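A five-concentration, 48-hour dose response in 96-well plates underlies each endpoint, interpolated linearly between surrounding concentrations. At the TGI there is no net growth.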

`CC(O)C1(CNc2cc(Cl)nc(N)n2)CC(CCc2ccccc2)C1` (stereo not given): the TGI in the experiment with RXF 393 renal was determined as 30.8 µM; in the experiment with NCI-H522 lung it was 21.8 µM; with OVCAR-5 ovarian it was 33.9 µM; with K-562 leukemia it was 86.4 µM; with SF-268 CNS, 29.4 µM; with NCI/ADR-RES ovarian, 21.8 µM. The TGI with NCI-H226 lung came out at 30.8 µM; with RPMI-8226 leukemia, 43.1 µM; in the experiment on MDA-MB-435 it was 26.6 µM; in the experiment with KM12 colon it was 27.7 µM; with SR leukemia it was 35.8 µM; in the experiment with HOP-62 NSCLC, 27.3 µM. The TGI in the experiment with PC-3 prostate amounted to 25.3 µM; with HT29 colon, 25.7 µM; in the experiment on MDA-MB-231 breast, 22.5 µM; in the experiment on COLO 205 colon, 28.8 µM; in the experiment on U251 CNS, 27.6 µM; with MOLT-4 leukemia, 56 µM. Further, the TGI in the experiment with HS 578T breast turned out to be 38.4 µM; in the experiment on OVCAR-4 ovarian, 23.3 µM.
As for `Cc1nc2c(o1)C(=O)c1ccccc1C2=Nc1ccc(N2CCOCC2)cc1`, the TGI in the experiment with RXF 393 renal was 2.97 µM; with NCI-H522 lung it was 7 µM; in the experiment on OVCAR-5 ovarian, 33.6 µM; in the experiment with K-562 leukemia, 11.6 µM; in the experiment on SF-268 CNS, 23.6 µM; with NCI/ADR-RES ovarian it was over 29.6 µM. In addition, the TGI came out at 42.1 µM in the experiment with NCI-H226 lung; 25.5 µM with RPMI-8226 leukemia; 3.58 µM in the experiment with MDA-MB-435; 66.8 µM with KM12 colon; 13.3 µM in the experiment on SR leukemia; 22.3 µM in the experiment on HOP-62 NSCLC. Further, the TGI with PC-3 prostate turned out to be 7.37 µM; with HT29 colon it was 60.9 µM; with MDA-MB-231 breast it was 8.84 µM; with COLO 205 colon it was 55.5 µM; with U251 CNS it was 14.4 µM; with MOLT-4 leukemia it was 31.5 µM. Moreover, the results for the TGI in the experiment with HS 578T breast and in the experiment on OVCAR-4 ovarian were 12.5 µM and 12.4 µM, respectively.
As to `C/C(=N\NC(=S)N(C)CCN(C)C(=S)N/N=C(\C)c1ccccn1)c1ccccn1`, the TGI in the experiment with RXF 393 renal turned out to be 3.46 µM; in the experiment on NCI-H522 lung, 18.8 µM; in the experiment with OVCAR-5 ovarian it was 42 µM; in the experiment with K-562 leukemia, 29.1 µM; in the experiment with SF-268 CNS it was 12 µM; with NCI/ADR-RES ovarian, 2.02 µM. Moreover, the TGI is 3.48 µM in the experiment with NCI-H226 lung; 23.7 µM with RPMI-8226 leukemia; over 100 µM in the experiment on MDA-MB-435; 14.3 µM in the experiment on KM12 colon; 3.71 µM with SR leukemia; 19 µM in the experiment on HOP-62 NSCLC. Besides, the TGI came out at 18.8 µM in the experiment on PC-3 prostate; 24.4 µM in the experiment with HT29 colon; 13.1 µM in the experiment on MDA-MB-231 breast; 0.912 µM in the experiment on COLO 205 colon; 18.9 µM in the experiment on U251 CNS; 46.3 µM in the experiment with MOLT-4 leukemia. The TGI was over 100 µM in the experiment on HS 578T breast and 14.8 µM in the experiment on OVCAR-4 ovarian.
For the compound `COc1ccc2c(ccc3c(COC(=O)NC(C)C)c(COC(=O)NC(C)C)n(C)c32)c1`, the TGI was 22.2 µM with RXF 393 renal; 12.8 µM in the experiment with NCI-H522 lung; 30.8 µM with OVCAR-5 ovarian; over 100 µM with K-562 leukemia; 29.7 µM in the experiment with SF-268 CNS; 22.9 µM in the experiment on NCI/ADR-RES ovarian. The TGI is 23.2 µM with NCI-H226 lung; over 100 µM in the experiment with RPMI-8226 leukemia; 44.1 µM with MDA-MB-435; 25.4 µM in the experiment with KM12 colon; over 100 µM in the experiment with SR leukemia; 20.9 µM in the experiment on HOP-62 NSCLC. Besides, the TGI was 24.3 µM with PC-3 prostate; 26.5 µM in the experiment with HT29 colon; 34.2 µM in the experiment with MDA-MB-231 breast; 22.6 µM in the experiment with COLO 205 colon; 28.5 µM in the experiment on U251 CNS; over 100 µM in the experiment on MOLT-4 leukemia. The TGI came out at 38.2 µM with HS 578T breast and 28 µM in the experiment with OVCAR-4 ovarian.
For the compound `CN(C)/C=N/NC(=O)/C(C#N)=C/N(C)C`, the TGI in the experiment with RXF 393 renal, in the experiment with NCI-H522 lung, in the experiment on OVCAR-5 ovarian, with K-562 leukemia, in the experiment on SF-268 CNS and in the experiment with NCI/ADR-RES ovarian was over 100 µM throughout. Moreover, the TGI in the experiment with NCI-H226 lung, in the experiment with RPMI-8226 leukemia, in the experiment with MDA-MB-435, with KM12 colon, in the experiment with SR leukemia and in the experiment on HOP-62 NSCLC was over 100 µM each time. The TGI in the experiment with PC-3 prostate, in the experiment on HT29 colon, in the experiment on MDA-MB-231 breast, in the experiment on COLO 205 colon, in the experiment with U251 CNS and in the experiment with MOLT-4 leukemia was over 100 µM throughout. Also, the TGI in the experiment on HS 578T breast and with OVCAR-4 ovarian was over 100 µM in each case.
As to `COC(=O)/C=C(/OC)[C@H](C)[C@H](/C=C/c1csc(-c2csc(C(C)C)n2)n1)OC`, the TGI with RXF 393 renal was over 25 µM; with NCI-H522 lung it was over 100 µM; in the experiment on OVCAR-5 ovarian, over 100 µM; in the experiment with K-562 leukemia, over 100 µM; in the experiment on SF-268 CNS, over 100 µM; with NCI/ADR-RES ovarian, over 100 µM. Further, the TGI in the experiment on NCI-H226 lung was over 100 µM; in the experiment with RPMI-8226 leukemia, 65.8 µM; with MDA-MB-435 it was over 100 µM; in the experiment on KM12 colon it was over 100 µM; in the experiment on SR leukemia it was over 100 µM; with HOP-62 NSCLC it was over 100 µM. Moreover, the TGI with PC-3 prostate, in the experiment on HT29 colon, in the experiment with MDA-MB-231 breast, in the experiment on COLO 205 colon, in the experiment on U251 CNS and in the experiment with MOLT-4 leukemia was over 100 µM each time. Further, the TGI with HS 578T breast and with OVCAR-4 ovarian was over 100 µM throughout.
For `Clc1ccc(-c2ccc(-c3nn4c(CNc5ccccc5)nnc4s3)o2)c(Cl)c1`, the TGI in the experiment on RXF 393 renal is 86.2 µM; in the experiment with NCI-H522 lung, over 100 µM; in the experiment on OVCAR-5 ovarian, over 100 µM; with K-562 leukemia, over 100 µM; in the experiment on SF-268 CNS it was over 100 µM; with NCI/ADR-RES ovarian it was over 100 µM. The TGI in the experiment on NCI-H226 lung, with RPMI-8226 leukemia, in the experiment with MDA-MB-435, in the experiment on KM12 colon, in the experiment on SR leukemia and in the experiment with HOP-62 NSCLC was over 100 µM in each case. Also, the TGI in the experiment with PC-3 prostate, in the experiment on HT29 colon, in the experiment on MDA-MB-231 breast, with COLO 205 colon, in the experiment with U251 CNS and in the experiment on MOLT-4 leukemia was over 100 µM each time. The TGI in the experiment on HS 578T breast and with OVCAR-4 ovarian was over 100 µM throughout.
